The record followed here is patent publication US11542316B2, “S-Arrestin peptides and therapeutic uses thereof” (APITOPE INTERNATIONAL NV, priority 2017, dated 2023).

This assay concerns SAg-specific hybridoma cells / T cell line with VAVY APC. Description: Antigen Processing Independent Presentation System (APIPS) assay, fresh or fixed VAVY APC. Format: cell-based, DR3 mice. To be noted: DR3 hybridoma clone (IL-2, 48 h) or T cell line (IFN-γ, 24 h). Summed up:
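SAg-specific hybridomas (5×10^4) or peptide-restimulated T cell lines from immunized DR3 mice were cultured with fresh or 0.5% paraformaldehyde-fixed (5 min, RT) VAVY APCs and peptide (10 or 25 μg/ml). Read-out: IL-2 ELISA at 48 h for hybridomas, IFN-γ ELISA at 24 h for T cell lines.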

Ends that are not written are not given here.

As for “LTKTLTLLPLLANNRERR-NH2 [HIP-24DG, LTKTLTLLPLLANNRERR]”, the “behaves as apitope (response to peptide presented by fresh or fixed APC)” value (shortened to “behaves as apitope”) is given as “behave as apitopes”.

“VIFKKISRDKSVTIYLG-NH2 [HIP-115NE3, VIFKKISRDKSVTIYLG]”: the “behaves as apitope” value is reported as “behave as apitopes”. For the substance KKKLTFRRDLYFSRVQVYKKK-NH2 [HIP-17J-KKK], the “behaves as apitope” value was “behave as apitopes”.

On to “LPLLANNRERRGIA-NH2 [HIP-24HM3, LPLLANNRERRGIA]”, for which the “behaves as apitope” value is reported as “behave as apitopes”. On to “KKKVIFKKISRDKSVTIYLGKKK-NH2 [HIP-115NE3-KKK]”, for which the “behaves as apitope” value was “behave as apitopes”.
